How the values were obtained:
[1] = Ratio of drug uptake in medulla to cerebellum in anesthetized cynomolgus monkey after 6.5 mins postinjection; type: ADME, organism-based, Macaca fascicularis; conditions: in vivo
[2] = Drug uptake in anesthetized cynomolgus monkey brain frontal lobe after 185 mins postinjection; type: ADME, organism-based, Macaca fascicularis; conditions: in vivo
[3] = Ratio of drug uptake in caudate to cerebellum in anesthetized cynomolgus monkey after 195 mins postinjection; type: ADME, organism-based, Macaca fascicularis; conditions: in vivo, 3.25 h
[4] = Drug uptake in anesthetized cynomolgus monkey brain occipital lobe after 182.5 mins postinjection; type: ADME, organism-based, Macaca fascicularis; conditions: in vivo
[5] = Drug uptake in anesthetized cynomolgus monkey brain occipital lobe after 207.5 mins postinjection; type: ADME, organism-based, Macaca fascicularis; conditions: in vivo
[6] = Drug uptake in anesthetized cynomolgus monkey brain frontal lobe after 192.5 mins postinjection; type: ADME, organism-based, Macaca fascicularis; conditions: in vivo
Pons [7] = test: Drug uptake in anesthetized cynomolgus monkey brain pons after 182.5 mins postinjection; type: ADME, organism-based, Macaca fascicularis; conditions: in vivo
Pons [8] = test: Drug uptake in anesthetized cynomolgus monkey brain pons after 197.5 mins postinjection; type: ADME, organism-based, Macaca fascicularis; conditions: in vivo
Caudate [9] = test: Drug uptake in anesthetized cynomolgus monkey brain caudate after 182.5 mins postinjection; type: ADME, organism-based, Macaca fascicularis, Caudate nucleus; conditions: in vivo
Caudate [10] = test: Drug uptake in anesthetized cynomolgus monkey brain caudate after 192.5 mins postinjection; type: ADME, organism-based, Macaca fascicularis, Caudate nucleus; conditions: in vivo
[11] = Ratio of drug uptake in pons to cerebellum in anesthetized cynomolgus monkey after 205 mins postinjection; type: ADME, organism-based, Macaca fascicularis; conditions: in vivo
[12] = Drug uptake in awake rhesus monkey occipital lobe after 65 mins postinjection; type: ADME, organism-based, Macaca mulatta; conditions: in vivo
[13] = Drug uptake in awake rhesus monkey brain medulla after 65 mins postinjection; type: ADME, organism-based, Macaca mulatta; conditions: in vivo
[14] = Drug uptake in awake rhesus monkey brain medulla after 95 mins postinjection; type: ADME, organism-based, Macaca mulatta; conditions: in vivo
[15] = Ratio of drug uptake in thalamus to cerebellum in awake rhesus monkey after 2.8 mins postinjection; type: ADME, organism-based, Macaca mulatta; conditions: in vivo, 168 s
[16] = Ratio of drug uptake in frontal lobe to cerebellum in awake rhesus monkey after 0.8 mins postinjection; type: ADME, organism-based, Macaca mulatta; conditions: in vivo, 48 s
[17] = Ratio of drug uptake in frontal lobe to cerebellum in awake rhesus monkey after 2.8 mins postinjection; type: ADME, organism-based, Macaca mulatta; conditions: in vivo, 168 s
[18] = Drug uptake in awake rhesus monkey occipital lobe after 105 mins postinjection; type: ADME, organism-based, Macaca mulatta; conditions: in vivo, 1.75 h
[19] = Ratio of drug uptake in occipital lobe to cerebellum in awake rhesus monkey after 13.5 mins postinjection; type: ADME, organism-based, Macaca mulatta; conditions: in vivo, 0.225 h
[20] = Ratio of drug uptake in occipital lobe to cerebellum in awake rhesus monkey after 10.5 mins postinjection; type: ADME, organism-based, Macaca mulatta; conditions: in vivo, 0.175 h
[21] = Drug uptake in awake rhesus monkey brain pons after 7.5 mins postinjection; type: ADME, organism-based, Macaca mulatta; conditions: in vivo, 0.125 h
[22] = Ratio of drug uptake in occipital lobe to cerebellum in awake rhesus monkey after 7.5 mins postinjection; type: ADME, organism-based, Macaca mulatta; conditions: in vivo, 0.125 h
[23] = Drug uptake in awake rhesus monkey brain midbrain after 25 mins postinjection; type: ADME, organism-based, Macaca mulatta; conditions: in vivo
[24] = Ratio of drug uptake in putamen to cerebellum in awake rhesus monkey after 25 mins postinjection; type: ADME, organism-based, Macaca mulatta; conditions: in vivo
[25] = Ratio of drug uptake in putamen to cerebellum in awake rhesus monkey after 45 mins postinjection; type: ADME, organism-based, Macaca mulatta; conditions: in vivo, 0.75 h
[26] = Ratio of drug uptake in caudate to cerebellum in awake rhesus monkey after 10.5 mins postinjection; type: ADME, organism-based, Macaca mulatta; conditions: in vivo, 0.175 h
[27] = Drug uptake in awake rhesus monkey brain caudate after 10.5 mins postinjection; type: ADME, organism-based, Macaca mulatta, Caudate nucleus; conditions: in vivo, 0.175 h
[28] = Drug uptake in awake rhesus monkey brain caudate after 85 mins postinjection; type: ADME, organism-based, Macaca mulatta, Caudate nucleus; conditions: in vivo
[29] = Drug uptake in awake rhesus monkey occipital lobe after 25 mins postinjection; type: ADME, organism-based, Macaca mulatta; conditions: in vivo
[30] = biological target: Sodium-dependent dopamine transporter (Homo sapiens, UniProt Q01959); test: Displacement of [3H]RTI-55 from human DAT transfected in human HEK293 cells; type: cell-based
[31] = Ratio of drug uptake in pons to cerebellum in awake rhesus monkey after 55 mins postinjection; type: ADME, organism-based, Macaca mulatta; conditions: in vivo
[32] = Ratio of drug uptake in pons to cerebellum in awake rhesus monkey after 105 mins postinjection; type: ADME, organism-based, Macaca mulatta; conditions: in vivo, 1.75 h
[33] = Ratio of drug uptake in midbrain to cerebellum in awake rhesus monkey after 4.5 mins postinjection; type: ADME, organism-based, Macaca mulatta; conditions: in vivo, 0.075 h
[34] = Ratio of drug uptake in thalamus to cerebellum in awake rhesus monkey after 105 mins postinjection; type: ADME, organism-based, Macaca mulatta; conditions: in vivo, 1.75 h
[35] = Ratio of drug uptake in frontal lobe to cerebellum in awake rhesus monkey after 35 mins postinjection; type: ADME, organism-based, Macaca mulatta; conditions: in vivo
[36] = Ratio of drug uptake in frontal lobe to cerebellum in awake rhesus monkey after 65 mins postinjection; type: ADME, organism-based, Macaca mulatta; conditions: in vivo
[37] = Drug uptake in awake rhesus monkey brain cerebellum after 25 mins postinjection; type: ADME, organism-based, Macaca mulatta; conditions: in vivo
[38] = Ratio of drug uptake in midbrain to cerebellum in awake rhesus monkey after 45 mins postinjection; type: ADME, organism-based, Macaca mulatta; conditions: in vivo, 0.75 h
[39] = Drug uptake in awake rhesus monkey putamen after 2.3 mins postinjection; type: ADME, organism-based, Macaca mulatta; conditions: in vivo, 138 s
[40] = Drug uptake in awake rhesus monkey thalamus after 0.3 mins postinjection; type: ADME, organism-based, Macaca mulatta; conditions: in vivo, 0.005 h
[41] = Drug uptake in awake rhesus monkey midbrain after 2.3 mins postinjection; type: ADME, organism-based, Macaca mulatta; conditions: in vivo, 138 s
[42] = Drug uptake in awake rhesus monkey cerebellum after 0.3 mins postinjection; type: ADME, organism-based, Macaca mulatta; conditions: in vivo, 0.005 h
[43] = Drug uptake in awake rhesus monkey cerebellum after 1.3 mins postinjection; type: ADME, organism-based, Macaca mulatta; conditions: in vivo, 78 s
[44] = Ratio of drug uptake in putamen to cerebellum in awake rhesus monkey after 0.3 mins postinjection; type: ADME, organism-based, Macaca mulatta; conditions: in vivo, 0.005 h
[45] = Metabolic stability in anesthetized cynomolgus monkey plasma after 1 min postinjection; type: ADME, organism-based, Macaca fascicularis; conditions: read-out: Stability
[46] = Protein binding in anesthetized cynomolgus monkey plasma after 1 min postinjection; type: ADME, organism-based, Macaca fascicularis; conditions: read-out: PPB (converted)
[47] = Protein binding in anesthetized cynomolgus monkey plasma after 2 mins postinjection; type: ADME, organism-based, Macaca fascicularis; conditions: read-out: PPB (converted)
[48] = Protein binding in anesthetized cynomolgus monkey plasma after 180 mins postinjection; type: ADME, organism-based, Macaca fascicularis; conditions: read-out: PPB (converted)
[49] = Drug uptake in awake rhesus monkey brain frontal lobe after 1.75 mins postinjection; type: ADME, organism-based, Macaca mulatta; conditions: in vivo, 105 s
[50] = Drug uptake in awake rhesus monkey brain frontal lobe after 2.25 mins postinjection; type: ADME, organism-based, Macaca mulatta; conditions: in vivo, 135 s
[51] = Drug uptake in awake rhesus monkey brain frontal lobe after 2.75 mins postinjection; type: ADME, organism-based, Macaca mulatta; conditions: in vivo, 165 s
[52] = Drug uptake in awake rhesus monkey brain frontal lobe after 115 mins postinjection; type: ADME, organism-based, Macaca mulatta; conditions: in vivo
[53] = Drug uptake in awake rhesus monkey brain medulla after 17.5 mins postinjection; type: ADME, organism-based, Macaca mulatta; conditions: in vivo
[54] = Drug uptake in awake rhesus monkey brain pons after 0.25 mins postinjection; type: ADME, organism-based, Macaca mulatta; conditions: in vivo, 15 s
[55] = Drug uptake in awake rhesus monkey brain pons after 1.25 mins postinjection; type: ADME, organism-based, Macaca mulatta; conditions: in vivo, 75 s
[56] = Drug uptake in awake rhesus monkey brain midbrain after 0.75 mins postinjection; type: ADME, organism-based, Macaca mulatta; conditions: in vivo, 45 s
[57] = Drug uptake in awake rhesus monkey brain midbrain after 1.25 mins postinjection; type: ADME, organism-based, Macaca mulatta; conditions: in vivo, 75 s
[58] = Drug uptake in awake rhesus monkey brain midbrain after 13.5 mins postinjection; type: ADME, organism-based, Macaca mulatta; conditions: in vivo, 0.225 h
[59] = Ratio of drug uptake in putamen to cerebellum in awake rhesus monkey after 4.5 mins postinjection; type: ADME, organism-based, Macaca mulatta; conditions: in vivo, 0.075 h
[60] = Drug uptake in awake rhesus monkey brain putamen after 1.25 mins postinjection; type: ADME, organism-based, Macaca mulatta; conditions: in vivo, 75 s
[61] = Drug uptake in awake rhesus monkey brain caudate after 1.25 mins postinjection; type: ADME, organism-based, Macaca mulatta, Caudate nucleus; conditions: in vivo, 75 s
[62] = Ratio of drug uptake in medulla to cerebellum in awake rhesus monkey after 45 mins postinjection; type: ADME, organism-based, Macaca mulatta; conditions: in vivo, 0.75 h
[63] = Drug uptake in awake rhesus monkey brain cerebellum after 115 mins postinjection; type: ADME, organism-based, Macaca mulatta; conditions: in vivo
[64] = Drug uptake in awake rhesus monkey brain frontal lobe after 1.25 mins postinjection; type: ADME, organism-based, Macaca mulatta; conditions: in vivo, 75 s
[65] = Ratio of drug uptake in midbrain to cerebellum in awake rhesus monkey after 105 mins postinjection; type: ADME, organism-based, Macaca mulatta; conditions: in vivo, 1.75 h

Sequence of Sodium-dependent dopamine transporter (Q01959 whole entry): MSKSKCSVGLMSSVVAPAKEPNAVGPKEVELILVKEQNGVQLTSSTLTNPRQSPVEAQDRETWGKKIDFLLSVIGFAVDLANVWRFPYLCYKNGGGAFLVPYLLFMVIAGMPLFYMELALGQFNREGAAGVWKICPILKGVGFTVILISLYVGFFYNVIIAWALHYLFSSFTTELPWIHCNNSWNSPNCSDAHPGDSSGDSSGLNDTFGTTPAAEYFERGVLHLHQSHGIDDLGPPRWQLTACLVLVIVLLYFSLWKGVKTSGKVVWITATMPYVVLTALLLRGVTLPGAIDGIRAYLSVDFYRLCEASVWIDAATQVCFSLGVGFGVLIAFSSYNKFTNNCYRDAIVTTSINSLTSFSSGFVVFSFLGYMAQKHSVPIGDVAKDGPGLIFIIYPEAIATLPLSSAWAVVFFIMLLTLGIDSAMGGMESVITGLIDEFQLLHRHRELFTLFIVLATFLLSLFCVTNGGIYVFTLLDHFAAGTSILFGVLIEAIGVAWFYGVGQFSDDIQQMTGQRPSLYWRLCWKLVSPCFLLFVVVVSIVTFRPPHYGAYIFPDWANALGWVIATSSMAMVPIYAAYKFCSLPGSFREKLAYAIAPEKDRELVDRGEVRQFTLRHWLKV

Compound: O=C(OCC[18F])C1C2CCC(CC1c1cccc(/C=C\Br)c1)N2 (configuration not stated)
- Ratio [1]: 1.3
- Drug uptake [2]: 2.29
- Ratio [3]: 1.7

Compound: O=C(OCCC[18F])C1C2CCC(CC1c1cccc(/C=C\Br)c1)N2 (configuration not stated)
- Drug uptake [4]: 2.93
- Drug uptake [5]: 2.68
- Drug uptake [6]: 2.16
- Drug uptake (Pons [7]): 3.71
- Drug uptake (Pons [8]): 3.36
- Drug uptake (Caudate [9]): 3.95
- Drug uptake (Caudate [10]): 3.75

Compound: O=C(OCCC[18F])C1C2CCC(CC1c1cccc(/C=C\I)c1)N2 (configuration not stated)
- Ratio [1]: 1
- Drug uptake [2]: 2.03
- Ratio [3]: 1.3

Compound: O=C(OCC[18F])C1C2CCC(CC1c1ccc(/C=C\I)cc1)N2 (configuration not stated)
- Ratio [11]: 2.7
- Drug uptake [12]: 2.71
- Drug uptake [13]: 2.28
- Drug uptake [14]: 2.35
- Ratio [15]: 1.3
- Ratio [16]: 0
- Ratio [17]: 0.9
- Drug uptake [18]: 2.58
- Ratio [19]: 1
- Ratio [20]: 0.9
- Drug uptake [21]: 1.24
- Ratio [22]: 1
- Drug uptake [23]: 2.46
- Ratio [24]: 1.3
- Ratio [25]: 1.6
- Ratio [26]: 1
- Drug uptake [27]: 1.73
- Drug uptake [28]: 3.27
- Drug uptake [29]: 2.48
- Ki [30]: 0.013 µM
- Ratio [31]: 1.3
- Ratio [32]: 1.8
- Ratio [33]: 1
- Ratio [34]: 2.8
- Ratio [35]: 1
- Ratio [36]: 1.3
- Drug uptake [37]: 2.12
- Ratio [38]: 1.3
- Drug uptake [39]: 0.46
- Drug uptake [40]: 0
- Drug uptake [41]: 0.39
- Drug uptake [42]: 0.01
- Drug uptake [43]: 0.06
- Ratio [44]: 5.1

Compound: O=C(OCC[18F])C1C2CCC(CC1c1cccc(/C=C\I)c1)N2 (configuration not stated)
- remaining at 1 min [45]: 93%
- fraction unbound at 1 min [46]: 0.942
- fraction unbound at 2 min [47]: 0.944
- fraction unbound at 3 h [48]: 0.915
- Drug uptake [49]: 0.02
- Drug uptake [50]: 0.02
- Drug uptake [51]: 0.03
- Drug uptake [52]: 0.1
- Drug uptake [53]: 0.1
- Drug uptake [13]: 0.12
- Drug uptake [14]: 0.11
- Drug uptake [54]: 0
- Drug uptake [55]: 0.01
- Drug uptake [21]: 0.08
- Drug uptake [56]: 0
- Drug uptake [57]: 0.01
- Drug uptake [58]: 0.09
- Drug uptake [23]: 0.13
- Ratio [59]: 1.3
- Drug uptake (Pons [7]): 2.17
- Drug uptake (Pons [8]): 2.25
- Ratio [25]: 1.5
- Drug uptake [60]: 0.01
- Drug uptake [61]: 0.01
- Drug uptake [27]: 0.1
- Drug uptake [28]: 0.14
- Ratio [62]: 1
- Ratio [34]: 1.7
- Drug uptake (Caudate [9]): 2.31
- Drug uptake (Caudate [10]): 2.28
- Ratio [35]: 1
- Drug uptake [37]: 0.11
- Drug uptake [63]: 0.08
- Drug uptake [64]: 0
- Ratio [65]: 1.7
